Test results reported in patent publication US7915297B2, “Isoxazole derivatives and use thereof” (SK Holdings Co., Ltd., priority 2005, dated 2011).

Test system: Wnt/β-catenin signaling (β-catenin activity) in SW480 cell line
Assay: Cell-based Wnt agonist screening, TCF luciferase reporter, SW480 (TCF-FL)
Design: species or system human
Conditions: Homo sapiens, % of LiCl (20 mM), 24 h, Con. 1 μM, read-out: Max. Activity (%)
Excerpt: (§1) In order to measure the in vitro activity of compounds of the present invention, two human cancer cell lines, HEK293 and SW480, which have intact Wnt signaling and show APC gene mutation in the Wnt signaling pathway, respectively, were used.
(§2) For evaluating the activity of wnt/β-catenin signaling in the cancer cell lines, gene as illustrated in FIG. 1 having β-catenin-binding sites of the Tcf/Lef transcriptional control protein (5 sites of TCF, 5X TCF) and having a fire fly luficerase as a marker protein ascertainable the activity of 5X TCF was introduced into the cells. Treatment with G418 led monoclones of the cell lines, in which the genes were permanently expressed, so as to construct a cell-based Wnt agonist screening system. […] For comparison with the activity of the isoxazole derivatives as Wnt agonists, lithium chloride (LiCl), acting as a positive control for the cell-based Wnt agonist screening system, was used to determine the expression level of the luciferase, and the results are shown in FIG. 3.
(§3) The cell lines, in which a cell-based Wnt agonist screening system was constructed, were cultured in RPMI 1640 media supplemented with penicillin-streptomycin (100 Units/mL) and heat-inactivated 5% fetal bovine serum under standard culture conditions (5% CO2, 37° C., 100% relative humidity). […] The suspension was diluted with the same medium to adjust the cell count to 8,000˜15,000 cells per well and was moved then in a 96-well microtiter plate. After being incubated for 24 hrs, the cells were treated with various concentrations of the isoxazole derivatives synthesized in Preparation Examples. Incubation for an additional 24 hours was followed by the quantitative analysis of luciferase activity using a Luciferase Assay kit (Promega, U.S.A.) according to the protocol described in the manual provided by the manufacturer. Data on the activities of the isoxazole derivatives thus synthesized are given in Tables 34 to 43, and are expressed as percentages relative to the activity of the positive control LiCl (20 mM), a well-known agonist of Wnt signaling.

First: O=C(NCCn1nccn1)c1cc(-c2cccs2)on1 [Derivative (136), 5-thiophen-2-yl-isoxazole-3-carboxylic acid (2-[1,2,3]triazol-2-yl-ethyl)-amide]
Second: O=C(NCCNc1ccccc1)c1cc(-c2ccco2)on1 [Derivative (195), 5-furan-2-yl-isoxazole-3-carboxylic acid (2-phenylamino-ethyl)-amide]
The Emax at 1 µM of the first is higher: 837% for the first, 84% for the second.

With `O=C(NCCOc1ccccc1)c1cc(-c2ccco2)on1` [Derivative (214), 5-furan-2-yl-isoxazole-3-carboxylic acid (2-phenoxy-ethyl)-amide] the Emax at 1 µM was 161%.

Same assay, conditions: Homo sapiens, % of LiCl (20 mM), 24 h, Con. 10 μM, read-out: Max. Activity (%)

Compared with `O=C(NCCn1cncn1)c1cc(-c2ccco2)on1` [Derivative (38), 5-furan-2-yl-isoxazole-3-carboxylic acid (2-[1,2,4]triazol-1-yl-ethyl)-amide], `O=C(NCCCn1cncn1)c1cc(-c2ccoc2)on1` [Derivative (153), 5-furan-3-yl-isoxazole-3-carboxylic acid (3-[1,2,4]-triazol-1-yl-propyl)-amide] is lower in Emax at 10 µM: 551% for the first, 304% for the second.

For `CN1CCN(C(=O)OCc2cc(-c3ccco3)on2)CC1` [Derivative (253), 4-methyl-piperazine-1-carboxylic acid 5-furan-2-yl-isoxazol-3-ylmethyl ester], the Emax at 10 µM was 66%.

Same assay, conditions: Homo sapiens, % of LiCl (20 mM), 24 h, Con. 30 μM, read-out: Max. Activity (%)

`O=C(Nc1ccccc1O)c1cc(-c2ccco2)on1` [Derivative (2), 5-furan-2-yl-isoxazole-3-carboxylic acid (2-hydroxy-phenyl)-amide] and `O=C(NCc1ccccc1)c1cc(-c2ccco2)on1` [Derivative (4), 5-furan-2-yl-isoxazole-3-carboxylic acid benzylamide] cannot be ordered by Emax at 30 µM: < 20% for the first, < 20% for the second.

Going from `O=C(NCCc1ccccc1)c1cc(-c2ccco2)on1` [Derivative (5), 5-furan-2-yl-isoxazole-3-carboxylic acid phenethyl-amide] to `O=C(NCCc1cccnc1)c1cc(-c2ccccc2)on1` [Derivative (71), 5-phenyl-isoxazole-3-carboxylic acid (2-pyridin-3-yl-ethyl)-amide], the Emax at 30 µM rises from 148% to 919%.

First: O=C(NCc1ccccn1)c1cc(-c2ccco2)on1 [Derivative (7), 5-furan-2-yl-isoxazole-3-carboxylic acid (pyridin-2-ylmethyl)-amide]
Second: O=C(NCCn1nccn1)c1cc(-c2ccco2)on1 [Derivative (40), 5-furan-2-yl-isoxazole-3-carboxylic acid (2-[1,2,3]triazol-2-yl-ethyl)-amide]
The Emax at 30 µM of the first is lower: < 20% for the first, 896% for the second.

Compared with `O=C(NCCn1ccnn1)c1cc(-c2ccco2)on1` [Derivative (41), 5-furan-2-yl-isoxazole-3-carboxylic acid (2-[1,2,3]triazol-1-yl-ethyl)-amide], `CN1CCN(CCNC(=O)c2cc(-c3ccco3)on2)CC1` [Derivative (177), 5-furan-2-yl-isoxazole-3-carboxylic acid [2-(4-methyl-piperazin-1-yl)-ethyl]-amide] is lower in Emax at 30 µM: 676% for the first, 582% for the second.

Going from `O=C(NCCc1ccc(O)cc1)c1cc(-c2ccccc2)on1` [Derivative (73), 5-phenyl-isoxazole-3-carboxylic acid [2-(4-hydroxy-phenyl)-ethyl]-amide] to `O=C(CCNC(=O)c1cc(-c2cccs2)on1)Nc1ccccc1` [Derivative (209), 5-thiophen-2-yl-isoxazole-3-carboxylic acid (2-phenylcarbamoyl-ethyl)-amide], the Emax at 30 µM falls from 853% to 246%.

First: O=C(NCCc1cccnc1)c1cc(-c2cccs2)on1 [Derivative (139), 5-thiophen-2-yl-isoxazole-3-carboxylic acid (2-pyridin-3-yl-ethyl)-amide]
Second: O=C(NCCS(=O)(=O)c1ccccc1)c1cc(-c2cccs2)on1 [Derivative (219), 5-thiophen-2-yl-isoxazole-3-carboxylic acid (2-benzenesulfonyl-ethyl)-amide]
The Emax at 30 µM of the first is higher: 922% for the first, 113% for the second.

Compared with `O=C(c1cc(-c2cccs2)on1)N1CCN(c2ccccn2)CC1` [Derivative (221), (4-pyridin-2-yl-piperazin-1-yl)-(5-thiophen-2-yl-isoxazol-3-yl)-methanone], `O=C(c1cc(-c2cccs2)on1)N1CCN(c2ncccn2)CC1` [Derivative (222), (4-pyrimidin-2-yl-piperazin-1-yl)-(5-thiophen-2-yl-isoxazol-3-yl)-methanone] is higher in Emax at 30 µM: 51% for the first, 57% for the second.

`O=C(c1cc(-c2cccs2)on1)N1CCC(N2CCCC2)CC1` [Derivative (223), (4-pyrrolidin-1-yl-piperidin-1-yl)-(5-thiophen-2-yl-isoxazol-3-yl)-methanone] showed an Emax at 30 µM of 50%.

Same assay, conditions: Homo sapiens, % of LiCl (20 mM), 24 h, Con. 40 μM, read-out: Max. Activity (%)

In the case of `Nc1ccccc1NC(=O)c1cc(-c2ccco2)on1` [Derivative (3), 5-furan-2-yl-isoxazole-3-carboxylic acid (2-amino-phenyl)-amide], the Emax at 40 µM is reported as 331%.

Same assay, conditions: Homo sapiens, % of LiCl (20 mM), 24 h, Con. 60 μM, read-out: Max. Activity (%)

Work on `O=C(NCCCc1ccccc1)c1cc(-c2ccco2)on1` [Derivative (6), 5-furan-2-yl-isoxazole-3-carboxylic acid (3-phenyl-propyl)-amide] yielded an Emax at 60 µM of 322%.

Same assay, conditions: Homo sapiens, % of LiCl (20 mM), 24 h, Con. 120 μM, read-out: Max. Activity (%)

Compared with `CN(CCc1ccccn1)C(=O)c1cc(-c2ccco2)on1` [Derivative (61), 5-furan-2-yl-isoxazole-3-carboxylic acid methyl-(2-pyridin-2-yl-ethyl)-amide], `O=C(NCc1ccncc1)OCc1cc(-c2ccco2)on1` [Derivative (254), pyridin-4-ylmethyl-carbamic acid 5-furan-2-yl-isoxazol-3-ylmethyl ester] is lower in Emax at 120 µM: 56% for the first, 37% for the second.

First: Nc1ccc(-c2cc(C(=O)NCCCn3ccnc3)no2)cc1 [Derivative (120), 5-(4-amino-phenyl)-isoxazole-3-carboxylic acid (3-imidazol-1-yl-propyl)-amide]
Second: O=C(NCCCn1ccnc1)c1cc(-c2ccoc2)on1 [Derivative (152), 5-furan-3-yl-isoxazole-3-carboxylic acid (3-imidazol-1-yl-propyl)-amide]
The Emax at 120 µM of the first is lower: 246% for the first, 374% for the second.

Going from `O=C(NCCn1cncn1)c1cc(-c2cccs2)on1` [Derivative (135), 5-thiophen-2-yl-isoxazole-3-carboxylic acid (2-[1,2,4]triazol-1-yl-ethyl)-amide] to `O=C(NCCn1cncn1)c1cc(-c2ccsc2)on1` [Derivative (158), 5-thiophen-3-yl-isoxazole-3-carboxylic acid (2-[1,2,4]-triazol-1-yl-ethyl)-amide], the Emax at 120 µM falls from 945% to 414%.

Going from `O=C(NCCCn1ccnc1)c1cc(-c2ccc(Br)s2)on1` [Derivative (143), 5-(5-bromo-thiophen-2-yl)-isoxazole-3-carboxylic acid (3-imidazol-1-yl-propyl)-amide] to `O=C(OCc1cc(-c2ccco2)on1)n1ccnc1` [Derivative (251), imidazole-1-carboxylic acid 5-furan-2-yl-isoxazol-3-ylmethyl ester], the Emax at 120 µM falls from 93% to 35%.

Compared with `O=C(NCCN1CCCCC1)c1cc(-c2ccco2)on1` [Derivative (174), 5-furan-2-yl-isoxazole-3-carboxylic acid (2-piperidin-1-yl-ethyl)-amide], `CC(=O)N1CCN(C(=O)OCc2cc(-c3ccco3)on2)CC1` [Derivative (252), 4-acetyl-piperazine-1-carboxylic acid 5-furan-2-yl-isoxazol-3-ylmethyl ester] is lower in Emax at 120 µM: 79% for the first, 49% for the second.

Test system: Wnt/β-catenin signaling (β-catenin activity) in HEK293 cell line
Assay: Cell-based Wnt agonist screening, TCF luciferase reporter, HEK293 (TCF-FL)
Design: species or system human
Conditions: Homo sapiens, HEK293, 24 h, % of LiCl (20 mM), 24 h, Conc. 30 μM, read-out: Max. Activity (%)
Excerpt: as §1, §2, §3

`O=C(Nc1ccccc1O)c1cc(-c2ccco2)on1` [Derivative (2), 5-furan-2-yl-isoxazole-3-carboxylic acid (2-hydroxy-phenyl)-amide] and `Nc1ccccc1NC(=O)c1cc(-c2ccco2)on1` [Derivative (3), 5-furan-2-yl-isoxazole-3-carboxylic acid (2-amino-phenyl)-amide] cannot be ordered by Emax at 30 µM: < 20% for the first, < 20% for the second.

`O=C(NCc1ccccc1)c1cc(-c2ccco2)on1` [Derivative (4), 5-furan-2-yl-isoxazole-3-carboxylic acid benzylamide] and `O=C(NCCc1ccccc1)c1cc(-c2ccco2)on1` [Derivative (5), 5-furan-2-yl-isoxazole-3-carboxylic acid phenethyl-amide] cannot be ordered by Emax at 30 µM: < 20% for the first, < 20% for the second.

`O=C(NCCCc1ccccc1)c1cc(-c2ccco2)on1` [Derivative (6), 5-furan-2-yl-isoxazole-3-carboxylic acid (3-phenyl-propyl)-amide] and `O=C(NCCc1ccc(O)cc1)c1cc(-c2ccco2)on1` [Derivative (22), 5-furan-2-yl-isoxazole-3-carboxylic acid [2-(4-hydroxy-phenyl)-ethyl]-amide] cannot be ordered by Emax at 30 µM: < 20% for the first, < 20% for the second.

For `O=C(NCc1ccccn1)c1cc(-c2ccco2)on1` [Derivative (7), 5-furan-2-yl-isoxazole-3-carboxylic acid (pyridin-2-ylmethyl)-amide], the Emax at 30 µM was < 20%.

Same assay, conditions: Homo sapiens, HEK293, 24 h, % of LiCl (20 mM), 24 h, Conc. 60 μM, read-out: Max. Activity (%)

`O=C(NCCc1ccncc1)c1cc(-c2ccco2)on1` [Derivative (12), 5-furan-2-yl-isoxazole-3-carboxylic acid (2-pyridin-4-yl-ethyl)-amide] gave an Emax at 60 µM of 109%.

Same assay, conditions: Homo sapiens, HEK293, 24 h, % of LiCl (20 mM), 24 h, Conc. 120 μM, read-out: Max. Activity (%)

With `O=C(NCCc1ccccn1)c1cc(-c2ccco2)on1` [Derivative (10), 5-furan-2-yl-isoxazole-3-carboxylic acid (2-pyridin-2-yl-ethyl)-amide] the Emax at 120 µM was 32%.
